Measurements: PMC12692147, “Surface Acoustic Waves-Based Molecular Recognition of a Collagen Receptor on Human Erythrocytes” (International Journal of Molecular Sciences, 2025)
Entries after “also recorded” stand apart in the source; their conditions may differ.

Key:
[1] = system: platelet aggregation and cellular adhesion; conditions: background statement; ref [14] (preceding sentence); cited from earlier work
Source text: Disintegrins are the large family of anti-adhesive proteins found in viper venom, whose structural and functional complexity contrasts with their small molecular size. Echistatin is a 49-amino-acid peptide belonging to the disintegrins family derived from Echis carinatus snake venom. […] Obtustatin, comprising only 41 amino acid residues, is one of the shortest disintegrins characterized to date. It was purified from the venom of the Subcaucasian subspecies of the Levantine viper—Macrovipera ...

[2] = target: integrins in an immobilized erythrocyte ghost membrane; assay: SAW biosensor binding of disintegrins to immobilized erythrocyte ghosts; parameters: species or system human; conditions: for Kd / kon / koff: SAW (sam-X), erythrocyte ghosts immobilized via hydrophobic interactions (CH3-SAM), running buffer PBS pH 7.4, 25 °C, 20 μL/min, 1:1 binding model, experiments in triplicate; for Kd: KD = koff/kon; for kon: slope of kobs vs c, kobs of five channels averaged; for koff: y-intercept of kobs vs c; for KD (range in words): SAW, erythrocyte ghost membrane; for KD (range in words) / phase response on erythrocyte ghosts vs. unspecific binding to GUVs: result in words; for specificity of binding to erythrocyte ghost membrane: authors' conclusion in words; for phase response on erythrocyte ghosts vs. unspecific binding to GUVs: titration with increasing concentrations of disintegrins, GUVs (bovine brain phospholipids) on a parallel channel
Method: To detect disintegrin/erythrocyte ghost binding at the molecular level, a surface acoustic wave (SAW) biosensor was used (Figure 1). The machines of SAW instruments use a detection technology resembling a highly sensitive “weight detector”. Binding processes are measured by real mass changes on the surface. Basically, the sensor is a chip, whereby the surface is excited to oscillate acoustically. Acoustic waves are generated in the piezoelectric material and propagate laterally. Response to changes in the surface-bound material and configuration is achieved through a proprietary method that produces a modified oscillation. […] The phase of the wave is shifted on mass changes. A change in amplitude indicates viscoelastic and conformational characteristics. Both effects can be differentiated and detected independently for interaction analysis.
A similar amount of erythrocyte ghosts and GUVs were successfully immobilized on (1) positively poly-L-lysin charged 2D CM-dextran, (2) EDC/NHS-activated, negatively charged 2D CM-dextran, and (3) hydrophobic–CH3-SAM. The positively charged disintegrins were repelled from all charged surfaces; therefore, immobilization via hydrophobic interactions was chosen for the main core of experiments (Figure 2). Disintegrins were diluted in PBS to achieve similar immobilization levels; in a pre-experiment, all ligands were diluted 1:3, and then dilutions were adjusted. Experiments were performed in triplicate, starting with obtustatin, then echistatin, then vice versa. The baseline was stable; at immobilization of GUVs on a chip, a 14° phase shift was detected vs. 13.1° for the erythrocyte ghosts. In this set of experiments, GUVs formed from the phospholipid fraction of the bovine brain were used as a negative control for erythrocyte ghosts.
Based on the 1:1 binding model, a KD value was calculated depending on the fit model applied for the interaction of disintegrins with integrins in the erythrocyte ghosts. Data were obtained from sensor signals after the administration of increasing concentrations of disintegrins using the monomolecular growth model. The observed rate constants (kobs) were determined from the rising phase of the sensor response curves for each analyte concentration and plotted against the corresponding disintegrin concentrations. A linear regression was performed on the dataset according to the equationkobs = kon × c + koff where kon represents the association rate constant, koff is the dissociation rate constant, and c is the concentration of the injected analyte (see Figure 3C,D).
Erythrocyte membranes were obtained by the method of Dodge, Mitchell & Hanahan, as described. To obtain erythrocyte ghosts, after the last wash the RBC pellet was mixed with nine volumes of ice-cold lysis buffer (5 mM sodium phosphate) and stirred for 15 min at 0 °C. Subsequently, the unsealed erythrocyte ghosts were pelleted by centrifugation at 37,000× g for 10 min at 0 °C. After the centrifugation the ghosts were washed with ice-cold lysis buffer until residual hemoglobin was not visible. The RBC ghosts were suspended in about 0.5 volume of PBS and were kept frozen at −30 °C until use.
Biosensor investigations were performed using a sam®-X system Surface Acoustic Wave biosensor supplied by SAW instruments (GmbH, Bonn, Germany), as described before. Gold-coated sensors were incubated in a solution of 11-mercaptoundecanoic acid (10 mM) in ethanol abs. forming a self-assembled monolayer by binding of the sulfur headgroups to the gold surface ([…]). The carboxyl groups were activated with 200 mM N-ethyl-N-(dimethylaminopropyl)-carbodiimide (EDC) and 50 mM N-hydroxysuccinimide (NHS) to bind disintegrins and/or vesicles. An excess of activated unreacted NHS esters was blocked by 1 M ethanolamine (pH 8.5). Running buffer was PBS containing 2.7 mM potassium chloride and 137 mM sodium chloride (pH 7.4 at 25 °C); flow rate was 40/20 μL/min. […]

[3] = system: αVβ3 integrin; conditions: cited from earlier work
Source text: (§1) Integrin-mediated binding is important for the metastatic dissemination of different types of cancer cells. […] Obtustatin is one of the shortest disintegrins yet described, containing 41 amino acids. It has a similar pattern of cysteines to the other disintegrin echistatin but with a KTS motif rather than a classic RGD in its active site. […] Echistatin is a 49-amino-acid peptide belonging to the disintegrins family derived from Echis carinatus snake venom. […] Obtustatin, comprising only 41 amino acid residues, is one of the shortest disintegrins characterized to date. It was purified from the venom of the Subcaucasian subspecies of the Levantine viper—Macrovipera ...

[4] = target: αVβ3 integrin (Homo sapiens) (UniProt P06756); conditions: cited from earlier work
Sequence of UniProt P06756 (P06756 31-1048, chain 1 of 2): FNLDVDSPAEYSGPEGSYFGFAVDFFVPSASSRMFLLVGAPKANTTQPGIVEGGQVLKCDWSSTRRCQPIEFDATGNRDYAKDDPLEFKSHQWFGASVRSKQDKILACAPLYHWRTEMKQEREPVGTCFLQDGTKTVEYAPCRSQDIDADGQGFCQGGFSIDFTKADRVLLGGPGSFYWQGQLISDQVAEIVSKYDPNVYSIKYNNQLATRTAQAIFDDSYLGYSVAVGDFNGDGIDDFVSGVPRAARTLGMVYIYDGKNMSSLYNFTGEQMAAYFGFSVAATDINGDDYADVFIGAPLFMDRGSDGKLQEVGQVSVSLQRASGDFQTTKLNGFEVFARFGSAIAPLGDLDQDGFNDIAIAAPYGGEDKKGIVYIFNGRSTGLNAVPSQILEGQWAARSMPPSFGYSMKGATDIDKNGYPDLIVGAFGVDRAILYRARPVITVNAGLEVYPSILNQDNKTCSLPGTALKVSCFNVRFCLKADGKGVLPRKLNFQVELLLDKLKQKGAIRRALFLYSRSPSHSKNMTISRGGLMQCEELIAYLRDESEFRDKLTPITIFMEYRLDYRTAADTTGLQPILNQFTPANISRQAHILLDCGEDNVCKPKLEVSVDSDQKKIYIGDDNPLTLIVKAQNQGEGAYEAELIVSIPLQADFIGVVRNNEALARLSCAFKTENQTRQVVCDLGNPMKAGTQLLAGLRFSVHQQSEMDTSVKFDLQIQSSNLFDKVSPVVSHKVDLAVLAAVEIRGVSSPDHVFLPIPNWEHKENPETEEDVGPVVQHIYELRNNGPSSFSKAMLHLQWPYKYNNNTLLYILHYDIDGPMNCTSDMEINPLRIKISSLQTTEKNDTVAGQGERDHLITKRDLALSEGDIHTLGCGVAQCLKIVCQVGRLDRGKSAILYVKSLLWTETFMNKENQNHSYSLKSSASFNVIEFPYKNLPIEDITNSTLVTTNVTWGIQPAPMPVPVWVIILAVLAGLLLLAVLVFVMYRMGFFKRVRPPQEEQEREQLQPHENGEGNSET
Sequence of UniProt P06756 (P05106 27-788, chain 2 of 2, further chain): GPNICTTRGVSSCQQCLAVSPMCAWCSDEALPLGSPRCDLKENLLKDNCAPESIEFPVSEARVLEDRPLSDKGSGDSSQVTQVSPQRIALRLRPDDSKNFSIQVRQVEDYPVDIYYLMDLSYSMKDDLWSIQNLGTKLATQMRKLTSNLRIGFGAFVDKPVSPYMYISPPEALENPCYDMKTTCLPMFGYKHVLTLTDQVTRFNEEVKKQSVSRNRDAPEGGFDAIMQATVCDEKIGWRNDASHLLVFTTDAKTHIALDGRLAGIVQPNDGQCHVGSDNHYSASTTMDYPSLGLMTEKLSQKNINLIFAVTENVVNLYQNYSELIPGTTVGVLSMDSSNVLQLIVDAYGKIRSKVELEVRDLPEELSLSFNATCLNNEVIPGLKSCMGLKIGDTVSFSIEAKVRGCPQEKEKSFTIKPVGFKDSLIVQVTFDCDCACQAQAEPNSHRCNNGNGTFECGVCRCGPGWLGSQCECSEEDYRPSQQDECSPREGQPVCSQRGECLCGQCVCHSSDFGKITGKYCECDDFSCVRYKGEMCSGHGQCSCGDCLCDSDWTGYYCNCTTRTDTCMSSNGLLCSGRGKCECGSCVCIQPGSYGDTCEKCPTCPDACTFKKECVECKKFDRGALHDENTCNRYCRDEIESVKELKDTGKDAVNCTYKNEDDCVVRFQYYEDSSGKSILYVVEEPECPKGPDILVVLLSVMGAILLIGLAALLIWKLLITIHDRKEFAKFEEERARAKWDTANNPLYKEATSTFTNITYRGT

[5] = system: α1β1 integrin; conditions: cited from earlier work
Source text: as §1

[6] = stated in abstract without reference

Substance | inhibition of platelet aggregation and cellular adhesion [1] | Kd [2] [nM] | kon [2] | koff [2] | KD (range in words) [2] | specificity of binding to erythrocyte ghost membrane [2] | phase response on erythrocyte ghosts vs. unspecific binding to GUVs [2] | αVβ3 integrin antagonism ([3]; ref [20],[21],[22]) | αvβ3 integrin inhibition [3, 6] | Ki [4] [nM] | α1β1 integrin blockade, selectivity ([5]; ref [17],[18],[19]) | α1β1 integrin inhibition [5, 6]
ECESGPCCRNCKFLKEGTICKR—ARGD-DMDDYCNGKTCDCPRNPHKGPAT (disulfide) [Echistatin] | highly effective inhibitor of platelet aggregation and cellular adhesion | 2100 | (4.22 ± 0.002) × 10^2 M^−1 s^−1 | (8.85 ± 0.03) × 10^−4 s^−1 | low micromolar range | could be evidence of some unspecific binding | remarkably lower | potent irreversible αVβ3 integrin antagonist | potent, irreversible, and selective inhibitors |  |  | 
echistatin (from UniProt P17347) |  |  |  |  |  |  |  |  |  | 0.27 |  | 
CTTGPCCRQCKLKPAGTTCW-----KTS--LTSHYCTGKSCDCPLYPG (disulfide) [Obtustatin] |  | 232 | (5.34 ± 0.9) × 10^3 M^−1 s^−1 | (1.238 ± 0.8) × 10^−3 s^−1 | mid-nanomolar range | specific molecular recognition for both disintegrins, but the higher response for obtustatin; also recorded: specific binding of the obtustatin with the erythrocyte ghost membrane in the 1:1 binding mode | the highest difference is observable |  |  |  | block α1β1 integrin in a highly selective manner | potent, irreversible, and selective inhibitors
